Measurements published in ChEMBL document CHEMBL4052759, “Discovery of DS79182026: A potent orally active hepcidin production inhibitor” (Bioorg Med Chem Lett, 2017).
One block for each compound: values may come before it.

Assays:
[1] = molecular target: AMP-activated protein kinase, AMPK (Homo sapiens) (UniProt P54646+O43741+P54619+Q9UGJ0+Q9Y478+Q13131+Q9UGI9); assay: Inhibition of AMPK (unknown origin) at 0.078 uM relative to control
[2] = molecular target: Ribosomal protein S6 kinase alpha-5 (Homo sapiens) (UniProt O75582); assay: Inhibition of MSK1 (unknown origin) at 0.49 uM relative to control
[3] = molecular target: Ribosomal protein S6 kinase alpha-4 (Homo sapiens) (UniProt O75676); assay: Inhibition of MSK2 (unknown origin) at 0.49 uM relative to control
[4] = molecular target: Ephrin type-A receptor 8 (Homo sapiens) (UniProt P29322); assay: Inhibition of EPHA8 (unknown origin) at 0.49 uM relative to control
[5] = molecular target: Ephrin type-B receptor 4 (Homo sapiens) (UniProt P54760); assay: Inhibition of EPHB4 (unknown origin) at 0.49 uM relative to control
[6] = molecular target: Protein kinase C delta type (Homo sapiens) (UniProt Q05655); assay: Inhibition of PKC-delta (unknown origin) at 0.49 uM relative to control
[7] = molecular target: Protein kinase C eta type (Homo sapiens) (UniProt P24723); assay: Inhibition of PKC-eta (unknown origin) at 0.49 uM relative to control
[8] = molecular target: Protein kinase C theta type (Homo sapiens) (UniProt Q04759); assay: Inhibition of PKC-theta (unknown origin) at 0.49 uM relative to control
[9] = molecular target: Ribosomal protein S6 kinase alpha-3 (Homo sapiens) (UniProt P51812); assay: Inhibition of RSK2 (unknown origin) at 0.49 uM relative to control
[10] = molecular target: Ribosomal protein S6 kinase alpha-6 (Homo sapiens) (UniProt Q9UK32); assay: Inhibition of RSK4 (unknown origin) at 0.49 uM relative to control
[11] = molecular target: Inhibitor of nuclear factor kappa-B kinase subunit beta (Homo sapiens) (UniProt O14920); assay: Inhibition of IKK-beta (unknown origin) at 0.49 uM relative to control
[12] = molecular target: Tyrosine-protein kinase Fgr (Homo sapiens) (UniProt P09769); assay: Inhibition of FGR (unknown origin) at 0.49 uM relative to control
[13] = molecular target: Insulin receptor (Homo sapiens) (UniProt P06213); assay: Inhibition of INSR (unknown origin) at 0.49 uM relative to control
[14] = molecular target: Tyrosine-protein kinase Lck (Homo sapiens) (UniProt P06239); assay: Inhibition of LCK (unknown origin) at 0.49 uM relative to control
[15] = molecular target: Calcium/calmodulin-dependent protein kinase type II subunit beta (Homo sapiens) (UniProt Q13554); assay: Inhibition of CaMK2-beta (unknown origin) at 0.49 uM relative to control
[16] = molecular target: Serine/threonine-protein kinase DCLK1 (Homo sapiens) (UniProt O15075); assay: Inhibition of DCAMKL1 (unknown origin) at 0.49 uM relative to control
[17] = molecular target: Tyrosine-protein kinase ABL1 (Homo sapiens) (UniProt P00519); assay: Inhibition of ABL (unknown origin) at 0.49 uM relative to control
[18] = molecular target: Tyrosine-protein kinase receptor TYRO3 (Homo sapiens) (UniProt Q06418); assay: Inhibition of TYRO3 (unknown origin) at 0.49 uM relative to control
[19] = molecular target: Ribosomal protein S6 kinase alpha-5 (Homo sapiens) (UniProt O75582); assay: Inhibition of MSK1 (unknown origin) at 0.45 uM relative to control
[20] = molecular target: Protein kinase C eta type (Homo sapiens) (UniProt P24723); assay: Inhibition of PKC-eta (unknown origin) at 0.45 uM relative to control
[21] = molecular target: Protein kinase C iota type (Homo sapiens) (UniProt P41743); assay: Inhibition of PKC-iota (unknown origin) at 0.45 uM relative to control
[22] = molecular target: Ephrin type-A receptor 3 (Homo sapiens) (UniProt P29320); assay: Inhibition of EPHA3 (unknown origin) at 0.45 uM relative to control
[23] = test system: Fibroblast growth factor receptor 1 (Homo sapiens), P11362 [V561M]; assay: Inhibition of FGFR1 V561M mutant (unknown origin) at 0.45 uM relative to control
[24] = molecular target: Serine/threonine-protein kinase Nek6 (Homo sapiens) (UniProt Q9HC98); assay: Inhibition of NEK6 (unknown origin) at 0.45 uM relative to control
[25] = molecular target: Calcium/calmodulin-dependent protein kinase type II subunit beta (Homo sapiens) (UniProt Q13554); assay: Inhibition of CaMK2-beta (unknown origin) at 0.45 uM relative to control
[26] = molecular target: Calcium/calmodulin-dependent protein kinase type II subunit gamma (Homo sapiens) (UniProt Q13555); assay: Inhibition of CaMK2-gamma (unknown origin) at 0.45 uM relative to control
[27] = molecular target: Dual specificity tyrosine-phosphorylation-regulated kinase 1A (Homo sapiens) (UniProt Q13627); assay: Inhibition of DYRK1a (unknown origin) at 0.45 uM relative to control
[28] = molecular target: Mitogen-activated protein kinase kinase kinase kinase 4 (Homo sapiens) (UniProt O95819); assay: Inhibition of HGK (unknown origin) at 0.45 uM relative to control
[29] = molecular target: Tyrosine-protein kinase Lyn (Homo sapiens) (UniProt P07948); assay: Inhibition of LYN (unknown origin) at 0.45 uM relative to control
[30] = test system: Hepatocyte growth factor receptor (Homo sapiens), P08581 [M1250T]; assay: Inhibition of MET M1250T mutant (unknown origin) at 0.45 uM relative to control
[31] = molecular target: Serine/threonine-protein kinase DCLK1 (Homo sapiens) (UniProt O15075); assay: Inhibition of DCAMKL1 (unknown origin) at 0.45 uM relative to control
[32] = molecular target: Tyrosine-protein kinase receptor TYRO3 (Homo sapiens) (UniProt Q06418); assay: Inhibition of TYRO3 (unknown origin) at 0.45 uM relative to control
[33] = molecular target: RAF proto-oncogene serine/threonine-protein kinase (Homo sapiens) (UniProt P04049); assay: Inhibition of c-Raf (unknown origin) at 0.45 uM relative to control
[34] = molecular target: Protein kinase C beta (Homo sapiens) (UniProt P05771); assay: Inhibition of PKC-beta1 (unknown origin) at 0.45 uM relative to control

- inhibition [1]: 2.7%
Structure (SMILES): COC(=O)Nc1noc2cc(-c3c(-c4ccccn4)n[nH]c3C)ccc12

- inhibition [2]: 5.7%
- inhibition [3]: -3.7%
- inhibition [4]: -2.7%
- inhibition [5]: 1.7%
- inhibition [6]: 6.7%
- inhibition [7]: 7%
- inhibition [8]: 6%
- inhibition [9]: -2%
- inhibition [10]: -1.3%
- inhibition [11]: 2.3%
- inhibition [12]: -4%
- inhibition [13]: 2.3%
- inhibition [14]: 5.7%
- inhibition [15]: 2.3%
- inhibition [16]: 0%
- inhibition [17]: 38.3%
- inhibition [18]: 8.7%
Structure (SMILES): Cc1[nH]nc(C2CC2)c1-c1ccc2c(NC(=O)C3CC3)noc2c1

- inhibition [19]: 1.3%
- inhibition [20]: 0.3%
- inhibition [21]: -6.7%
- inhibition [22]: 5%
- inhibition [23]: 23.7%
- inhibition [24]: 3.3%
- inhibition [25]: -0.3%
- inhibition [26]: 3%
- inhibition [27]: 6.3%
- inhibition [28]: 73.3%
- inhibition [29]: 32.3%
- inhibition [30]: 5%
- inhibition [31]: 0%
- inhibition [32]: 13.3%
- inhibition [33]: 7%
- inhibition [34]: 7.7%
Structure (SMILES): Cc1n[nH]c(C)c1-c1ccc2c(NC(=O)c3ccc(N4CCN(C)CC4)cc3)n[nH]c2c1
